{
  "source": "patent US11254640B2",
  "about": "“N-substituted indoles and other heterocycles for treating brain disorders” (The Regents of the University of California, priority 2019, dated 2022)",
  "tested_on": "C57/BL6J mice",
  "test": "Forced swim test (FST)",
  "assay_type": "in vivo, mouse",
  "conditions": "24 h after drug administration; i.p., compounds 20 mg/kg, ketamine 3 mg/kg",
  "procedure": "Forced Swim Test. As increased cortical structural plasticity in the anterior parts of the brain mediates the sustained (>24 h) antidepressant-like effects of ketamine and play a role in the therapeutic effects of 5-HT2A agonists, the impact of IsoDMT analogs on forced swim test (FST) behavior (FIG. 14A and FIG. 14B) was evaluated. First, a pretest was used to induce a depressive phenotype. Compounds were administered 24 h after the pre-test, and the FST was performed 24 h and 7 d post drug administration.\nForced Swim Test (FST). Male C57/BL6J mice (9-10 weeks old at time of experiment) were obtained from the Jackson Lab and housed 4-5 mice/cage in a UCD vivarium following an IACUC approved protocol. After 1 week in the vivarium each mouse was handled for approximately 1 minute by a experimenter for 3 consecutive days leading up to the first FST. […] Immobility scores for all mice were determined after the pre-test and mice were randomly assigned to treatment groups to generate groups with similar average immobility scores to be used for the following two FST sessions. […] Experiments were video-recorded and manually scored offline. Immobility time—defined as passive floating or remaining motionless with no activity other than that needed to keep the mouse's head above water—was scored for the last 4 min of the 6 min trial.",
  "data": [
    {"compound": "COc1ccc2c(ccn2C[C@@H](C)N(C)C)c1", "note": "[Example 59, (R)-1-(5-methoxy-1H-indol-1-yl)-N,N-dimethylpropan-2-amine]", "values": [
      {"measurement": "immobility in forced swim test", "result": "significantly reduced immobility"}
    ]}
  ]
}
